Measured values from ChEMBL document CHEMBL1130941, “Comparison of the intrinsic kinase activity and substrate specificity of c-Abl and Bcr-Abl” (Bioorg Med Chem Lett, 1998).
Peptide text beside a SMILES is read from it.

Columns and labels:
[1] = biological target: T1, Bcr/Abl fusion protein (Homo sapiens) (UniProt P00519+P11274); test: Ratio of peptide phosphorylation by Bcr-Abl and c-Abl protein tyrosine kinases; assay type: protein assay
[2] = biological target: T1, Bcr/Abl fusion protein (Homo sapiens); test: Peptide phosphorylation by Bcr-Abl protein tyrosine kinase at 25 degree for 30 min in a cell-free system; assay type: protein assay
[3] = biological target: Tyrosine-protein kinase ABL1 (Homo sapiens) (UniProt P00519); test: Vmax/Km value for peptide phosphorylation by c-Abl protein tyrosine kinase
[4] = biological target: Tyrosine-protein kinase ABL1 (Homo sapiens) (UniProt P00519); test: Peptide phosphorylation by c-Abl protein tyrosine kinase at 25 degree for 30 min in a cell-free system
[5] = biological target: T1, Bcr/Abl fusion protein (Homo sapiens); test: Vmax/Km value for peptide phosphorylation by Bcr-Abl protein tyrosine kinase; assay type: protein assay
[6] = test system: CC[C@H](C)[C@H](NC(=O)[C@H](CCC(=O)O)NC(=O)[C@@H](N)CCC(=O)O)C(=O)N[C@@H](Cc1ccc(O)cc1)C(=O)N[C@@H](CC(=O)O)C(=O)N[C@@H](Cc1ccc(O)cc1)C(=O)N[C@@H](C)C(=O)N[C@@H](Cc1ccc(O)cc1)C(=O)O; test: (§1) Km value for peptide phosphorylation by Bcr-Abl protein tyrosine kinase; assay type: protein assay
[7] = test system: CC[C@H](C)[C@H](NC(=O)[C@H](CCCN=C(N)N)NC(=O)[C@@H](N)CCC(=O)O)C(=O)N[C@@H](Cc1ccc(O)cc1)C(=O)N[C@@H](C)C(=O)N[C@@H](CCCN=C(N)N)C(=O)N[C@H](C(=O)N[C@@H](CCCCN)C(=O)O)[C@@H](C)O; test: as §1; assay type: protein assay
[8] = test system: CC[C@H](C)[C@H](NC(=O)[C@H](CCC(=O)O)NC(=O)[C@@H](N)CCC(=O)O)C(=O)N[C@@H](Cc1ccc(O)cc1)C(=O)N[C@@H](CCC(=O)O)C(=O)N[C@@H](CCC(=O)O)C(=O)N1CCC[C@H]1C(=O)N[C@@H](Cc1ccc(O)cc1)C(=O)O; test: as §1; assay type: protein assay
[9] = test system: CC[C@H](C)[C@H](NC(=O)[C@H](CCC(=O)O)NC(=O)[C@H](CC(=O)O)NC(=O)[C@H](Cc1ccc(O)cc1)NC(=O)[C@@H](NC(=O)[C@H](CCC(=O)O)NC(=O)[C@@H](N)CCC(=O)O)[C@@H](C)CC)C(=O)N[C@@H](Cc1ccc(O)cc1)C(=O)O; test: as §1; assay type: protein assay
[10] = test system: CC[C@H](C)[C@H](NC(=O)[C@H](CCC(=O)O)NC(=O)[C@@H](N)CCC(=O)O)C(=O)N[C@@H](Cc1ccc(O)cc1)C(=O)N[C@@H](C)C(=O)N[C@@H](CCC(=O)O)C(=O)N[C@@H](Cc1c[nH]c2ccccc12)C(=O)N[C@@H](Cc1ccccc1)C(=O)O; test: as §1; assay type: protein assay
[11] = test system: CC[C@H](C)[C@H](NC(=O)[C@H](CCC(=O)O)NC(=O)[C@@H](N)CCC(=O)O)C(=O)N[C@@H](Cc1ccc(O)cc1)C(=O)N[C@@H](Cc1ccc(O)cc1)C(=O)N[C@@H](Cc1ccc(O)cc1)C(=O)N[C@H](C(=O)N[C@@H](Cc1c[nH]cn1)C(=O)O)C(C)C; test: as §1; assay type: protein assay
[12] = test system: CC[C@H](C)[C@H](NC(=O)[C@H](CCC(=O)O)NC(=O)[C@@H](N)CCC(=O)O)C(=O)N[C@@H](Cc1ccc(O)cc1)C(=O)N[C@@H](CC(=O)O)C(=O)N[C@@H](Cc1ccc(O)cc1)C(=O)N[C@@H](C)C(=O)N[C@@H](Cc1ccc(O)cc1)C(=O)O; test: (§2) Vmax value for peptide phosphorylation by Bcr-Abl protein tyrosine kinase; assay type: protein assay
[13] = test system: CC[C@H](C)[C@H](NC(=O)[C@H](CCCN=C(N)N)NC(=O)[C@@H](N)CCC(=O)O)C(=O)N[C@@H](Cc1ccc(O)cc1)C(=O)N[C@@H](C)C(=O)N[C@@H](CCCN=C(N)N)C(=O)N[C@H](C(=O)N[C@@H](CCCCN)C(=O)O)[C@@H](C)O; test: as §2; assay type: protein assay
[14] = test system: CC[C@H](C)[C@H](NC(=O)[C@H](CCC(=O)O)NC(=O)[C@@H](N)CCC(=O)O)C(=O)N[C@@H](Cc1ccc(O)cc1)C(=O)N[C@@H](CCC(=O)O)C(=O)N[C@@H](CCC(=O)O)C(=O)N1CCC[C@H]1C(=O)N[C@@H](Cc1ccc(O)cc1)C(=O)O; test: as §2; assay type: protein assay
[15] = test system: CC[C@H](C)[C@H](NC(=O)[C@H](CCC(=O)O)NC(=O)[C@H](CC(=O)O)NC(=O)[C@H](Cc1ccc(O)cc1)NC(=O)[C@@H](NC(=O)[C@H](CCC(=O)O)NC(=O)[C@@H](N)CCC(=O)O)[C@@H](C)CC)C(=O)N[C@@H](Cc1ccc(O)cc1)C(=O)O; test: as §2; assay type: protein assay
[16] = test system: CC[C@H](C)[C@H](NC(=O)[C@H](CCC(=O)O)NC(=O)[C@@H](N)CCC(=O)O)C(=O)N[C@@H](Cc1ccc(O)cc1)C(=O)N[C@@H](C)C(=O)N[C@@H](CCC(=O)O)C(=O)N[C@@H](Cc1c[nH]c2ccccc12)C(=O)N[C@@H](Cc1ccccc1)C(=O)O; test: as §2; assay type: protein assay
[17] = test system: CC[C@H](C)[C@H](NC(=O)[C@H](CCC(=O)O)NC(=O)[C@@H](N)CCC(=O)O)C(=O)N[C@@H](Cc1ccc(O)cc1)C(=O)N[C@@H](Cc1ccc(O)cc1)C(=O)N[C@@H](Cc1ccc(O)cc1)C(=O)N[C@H](C(=O)N[C@@H](Cc1c[nH]cn1)C(=O)O)C(C)C; test: as §2; assay type: protein assay

Sequence of Bcr/Abl fusion protein (Homo sapiens) (from UniProt P00519+P11274) (P11274 whole entry, looked up, the tested form may be a part): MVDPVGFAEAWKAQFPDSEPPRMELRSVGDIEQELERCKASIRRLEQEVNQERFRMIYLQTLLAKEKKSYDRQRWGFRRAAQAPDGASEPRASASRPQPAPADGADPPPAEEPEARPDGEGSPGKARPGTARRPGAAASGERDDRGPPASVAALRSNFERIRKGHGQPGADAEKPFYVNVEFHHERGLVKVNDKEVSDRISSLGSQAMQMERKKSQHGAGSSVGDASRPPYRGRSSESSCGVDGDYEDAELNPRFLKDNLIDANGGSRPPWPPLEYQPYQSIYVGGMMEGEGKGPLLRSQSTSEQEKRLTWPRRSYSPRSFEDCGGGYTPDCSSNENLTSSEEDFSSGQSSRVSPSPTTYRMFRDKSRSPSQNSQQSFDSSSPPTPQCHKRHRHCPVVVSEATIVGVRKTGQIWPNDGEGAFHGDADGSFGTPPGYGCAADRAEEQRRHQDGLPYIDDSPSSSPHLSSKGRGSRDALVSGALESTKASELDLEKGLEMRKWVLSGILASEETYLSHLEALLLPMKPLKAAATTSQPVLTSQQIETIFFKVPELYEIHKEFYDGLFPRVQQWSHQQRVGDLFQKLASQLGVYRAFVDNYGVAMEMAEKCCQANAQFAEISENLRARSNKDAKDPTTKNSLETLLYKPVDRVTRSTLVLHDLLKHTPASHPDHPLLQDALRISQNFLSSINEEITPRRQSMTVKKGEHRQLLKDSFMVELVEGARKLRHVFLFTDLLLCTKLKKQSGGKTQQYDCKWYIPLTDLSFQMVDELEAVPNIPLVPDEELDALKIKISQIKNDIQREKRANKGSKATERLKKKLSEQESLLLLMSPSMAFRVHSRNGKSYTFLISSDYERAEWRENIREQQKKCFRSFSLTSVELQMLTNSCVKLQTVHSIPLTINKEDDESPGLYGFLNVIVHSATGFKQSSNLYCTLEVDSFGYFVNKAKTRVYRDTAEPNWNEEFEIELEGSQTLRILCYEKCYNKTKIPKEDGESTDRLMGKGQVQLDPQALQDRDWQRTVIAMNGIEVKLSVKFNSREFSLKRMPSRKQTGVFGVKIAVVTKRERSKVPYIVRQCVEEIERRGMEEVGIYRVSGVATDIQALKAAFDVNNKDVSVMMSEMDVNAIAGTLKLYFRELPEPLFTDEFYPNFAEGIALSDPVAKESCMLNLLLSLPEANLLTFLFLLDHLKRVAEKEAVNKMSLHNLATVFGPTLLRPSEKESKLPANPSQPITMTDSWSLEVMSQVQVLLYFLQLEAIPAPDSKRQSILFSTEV
Sequence of Bcr/Abl fusion protein (Homo sapiens) (from UniProt P00519+P11274) (P00519 whole entry, looked up, the tested form may be a part): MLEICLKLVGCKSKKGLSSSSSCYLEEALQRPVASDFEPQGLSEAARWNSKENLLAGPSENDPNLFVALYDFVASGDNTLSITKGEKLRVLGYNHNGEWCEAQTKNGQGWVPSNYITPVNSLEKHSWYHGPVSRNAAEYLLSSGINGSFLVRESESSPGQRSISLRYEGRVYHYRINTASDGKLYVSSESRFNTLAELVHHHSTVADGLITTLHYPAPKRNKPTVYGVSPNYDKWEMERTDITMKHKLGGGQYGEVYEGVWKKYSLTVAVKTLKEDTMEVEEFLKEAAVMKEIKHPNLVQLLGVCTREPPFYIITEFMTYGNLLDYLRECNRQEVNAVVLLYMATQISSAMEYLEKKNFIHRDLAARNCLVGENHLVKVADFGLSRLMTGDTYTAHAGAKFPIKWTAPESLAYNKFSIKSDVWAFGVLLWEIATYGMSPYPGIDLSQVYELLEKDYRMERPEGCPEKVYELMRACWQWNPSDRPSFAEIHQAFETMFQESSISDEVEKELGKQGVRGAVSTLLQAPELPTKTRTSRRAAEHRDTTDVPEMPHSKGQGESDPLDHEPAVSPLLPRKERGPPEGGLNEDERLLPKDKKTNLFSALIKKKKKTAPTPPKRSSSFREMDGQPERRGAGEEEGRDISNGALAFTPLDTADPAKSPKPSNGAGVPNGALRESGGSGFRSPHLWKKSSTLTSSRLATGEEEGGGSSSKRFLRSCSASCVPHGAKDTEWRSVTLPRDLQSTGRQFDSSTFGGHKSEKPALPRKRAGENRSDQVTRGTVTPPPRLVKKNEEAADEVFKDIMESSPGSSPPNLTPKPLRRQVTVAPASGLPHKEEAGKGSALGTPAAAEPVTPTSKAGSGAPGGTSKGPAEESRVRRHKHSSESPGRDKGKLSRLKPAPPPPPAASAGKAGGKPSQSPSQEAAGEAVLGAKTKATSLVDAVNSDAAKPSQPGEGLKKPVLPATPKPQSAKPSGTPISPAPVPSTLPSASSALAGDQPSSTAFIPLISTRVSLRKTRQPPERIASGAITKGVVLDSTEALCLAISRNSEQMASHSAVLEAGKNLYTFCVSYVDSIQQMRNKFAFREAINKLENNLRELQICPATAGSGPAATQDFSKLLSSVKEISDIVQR
T1 sequence (P00519 whole entry, looked up, the tested form may be a part): as above
T1 sequence (P11274 whole entry, looked up, the tested form may be a part): as the sequence (P11274 whole entry, looked up, the tested form may be a part) above
Sequence of Tyrosine-protein kinase ABL1 (Homo sapiens) (P00519 whole entry, the tested form may be a part): as the sequence (P00519 whole entry, looked up, the tested form may be a part) above

Row | Compound | Ratio [1] | Activity [2] [pM] | Vmax / Km (10^-9 L min-1) [3] | Activity [4] [pmol] | Vmax / Km (10^-9 L min-1) [5] | further results
1 | CC[C@H](C)[C@H](NC(=O)[C@H](CCC(=O)O)NC(=O)[C@@H](N)CCC(=O)O)C(=O)N[C@@H](Cc1ccc(O)cc1)C(=O)N[C@@H](CC(=O)O)C(=O)N[C@@H](Cc1ccc(O)cc1)C(=O)N[C@@H](C)C(=O)N[C@@H](Cc1ccc(O)cc1)C(=O)O (H-EEIYDYAY-OH) | 3.33 | 22.4 | 7.46 | 6.73 | 56.4 | 
2 | CC[C@H](C)[C@H](NC(=O)[C@H](CCC(=O)O)NC(=O)[C@@H](N)CCC(=O)O)C(=O)N[C@@H](Cc1ccc(O)cc1)C(=O)N[C@@H](Cc1ccc(O)cc1)C(=O)N[C@@H](Cc1ccc(O)cc1)C(=O)N[C@H](C(=O)N[C@@H](Cc1c[nH]cn1)C(=O)O)C(C)C (H-EEIYYYVH-OH) | 5.24 | 17.7 | 2.38 | 3.37 | 32.9 | 
3 | CC[C@H](C)[C@H](NC(=O)[C@H](CCC(=O)O)NC(=O)[C@@H](N)Cc1ccc(O)cc1)C(=O)N[C@@H](Cc1ccc(O)cc1)C(=O)N[C@@H](CC(=O)O)C(=O)N[C@@H](Cc1ccc(O)cc1)C(=O)N[C@@H](Cc1ccc(O)cc1)C(=O)N[C@H](C(=O)O)C(C)C (H-YEIYDYYV-OH) | 2.91 | 7.89 |  | 2.71 |  | 
4 | CC[C@H](C)[C@H](NC(=O)[C@H](CCCN=C(N)N)NC(=O)[C@@H]1CCCN1)C(=O)N[C@@H](Cc1ccc(O)cc1)C(=O)N[C@@H](CC(=O)O)C(=O)N[C@H](C(=O)N1CCC[C@H]1C(=O)N[C@@H](Cc1ccc(O)cc1)C(=O)O)[C@@H](C)CC (H-PRIYDIPY-OH) | 5.97 | 9.5 |  | 1.59 |  | 
5 | CC[C@H](C)[C@H](NC(=O)[C@H](CCC(=O)O)NC(=O)[C@@H](N)CCC(=O)O)C(=O)N[C@@H](Cc1ccc(O)cc1)C(=O)N[C@@H](C)C(=O)N[C@@H](CCC(=O)O)C(=O)N[C@@H](Cc1c[nH]c2ccccc12)C(=O)N[C@@H](Cc1ccccc1)C(=O)O (H-EEIYAEWF-OH) | 3.98 | 22.6 | 14 | 5.69 | 97.6 | 
6 | CC[C@H](C)[C@H](NC(=O)[C@H](CCC(=O)O)NC(=O)[C@@H](N)CCC(=O)O)C(=O)N[C@@H](Cc1ccc(O)cc1)C(=O)N[C@@H](Cc1ccc(O)cc1)C(=O)N[C@@H](Cc1ccc(O)cc1)C(=O)N[C@@H](CCC(=O)O)C(=O)N[C@@H](CC(C)C)C(=O)O (H-EEIYYYEL-OH) | 3.52 | 4.48 |  | 1.27 |  | 
7 | CC[C@H](C)[C@H](NC(=O)[C@H](CCCN=C(N)N)NC(=O)[C@@H](N)CC(C)C)C(=O)N[C@@H](Cc1ccc(O)cc1)C(=O)N[C@@H](CCC(=O)O)C(=O)N[C@@H](CCCN=C(N)N)C(=O)N1CCC[C@H]1C(=O)N[C@@H](CCCN=C(N)N)C(=O)O (H-LRIYERPR-OH) | 8.73 | 10.7 |  | 1.23 |  | 
8 | CC[C@H](C)[C@H](NC(=O)[C@H](CCC(=O)O)NC(=O)[C@H](CC(=O)O)NC(=O)[C@H](Cc1ccc(O)cc1)NC(=O)[C@@H](NC(=O)[C@H](CCC(=O)O)NC(=O)[C@@H](N)CCC(=O)O)[C@@H](C)CC)C(=O)N[C@@H](Cc1ccc(O)cc1)C(=O)O (H-EEIYDEIY-OH) | 3.44 | 14.4 | 3.75 | 4.18 | 17.1 | 
9 | CC[C@H](C)[C@H](NC(=O)[C@H](Cc1ccc(O)cc1)NC(=O)[C@H](CC(=O)O)NC(=O)[C@H](Cc1ccc(O)cc1)NC(=O)[C@@H](NC(=O)[C@H](CCC(=O)O)NC(=O)[C@@H](N)Cc1ccc(O)cc1)[C@@H](C)CC)C(=O)N[C@@H](CCC(=O)O)C(=O)O (H-YEIYDYIE-OH) | 2.29 | 4.33 |  | 1.89 |  | 
10 | CC[C@H](C)[C@H](NC(=O)[C@H](Cc1c[nH]cn1)NC(=O)[C@@H](N)CCC(=O)O)C(=O)N[C@@H](Cc1ccc(O)cc1)C(=O)N[C@@H](Cc1c[nH]cn1)C(=O)N[C@@H](CCCN=C(N)N)C(=O)N[C@@H](Cc1c[nH]cn1)C(=O)N[C@@H](CCSC)C(=O)O (H-EHIYHRHM-OH) | 8.27 | 2.73 |  | 0.33 |  | 
11 | CC[C@H](C)[C@H](NC(=O)[C@H](CCC(=O)O)NC(=O)[C@H](Cc1ccc(O)cc1)NC(=O)[C@@H](NC(=O)[C@H](CC(=O)O)NC(=O)[C@@H](N)CC(=O)O)[C@@H](C)CC)C(=O)N[C@@H](Cc1ccc(O)cc1)C(=O)N[C@@H](Cc1c[nH]c2ccccc12)C(=O)O (H-DDIYEIYW-OH) | 4.92 | 4.35 |  | 0.88 |  | 
12 | Bcr/Abl fusion protein (Homo sapiens) (from UniProt P00519+P11274) |  |  |  |  |  | Km [6]: 130 µM; Km [7]: 121 µM; Km [8]: 106 µM; Km [9]: 439 µM; Km [10]: 54 µM; Km [11]: 141 µM; Vmax [12]: 7.33 pmol/min; Vmax [13]: 5.1 pmol/min; Vmax [14]: 10.5 pmol/min; Vmax [15]: 7.5 pmol/min; Vmax [16]: 5.27 pmol/min; Vmax [17]: 4.64 pmol/min
13 | CC[C@H](C)[C@H](NC(=O)[C@H](CCCN=C(N)N)NC(=O)[C@@H](N)CCC(=O)O)C(=O)N[C@@H](Cc1ccc(O)cc1)C(=O)N[C@@H](C)C(=O)N[C@@H](CCCN=C(N)N)C(=O)N[C@H](C(=O)N[C@@H](CCCCN)C(=O)O)[C@@H](C)O (H-ERIYARTK-OH) | 6.79 | 22.9 | 2.47 | 3.37 | 42.2 | 
14 | CC[C@H](C)[C@H](NC(=O)[C@H](CCC(=O)O)NC(=O)[C@@H](N)CCC(=O)O)C(=O)N[C@@H](Cc1ccc(O)cc1)C(=O)N[C@@H](CCC(=O)O)C(=O)N[C@@H](CCC(=O)O)C(=O)N1CCC[C@H]1C(=O)N[C@@H](Cc1ccc(O)cc1)C(=O)O (H-EEIYEEPY-OH) | 3.38 | 25.5 | 12.1 | 7.56 | 98.8 | 
